From patent US8586612B2, “Piperidinesulfonylureas and -thioureas, their preparation, their use and pharmaceutical compositions comprising them” (Sanofi-Aventis Deutschland GmbH, priority 2004, dated 2013)

What was measured:
guinea pig heart = test: Effect on coronary flow under hypoxic conditions in the isolated perfused Langendorff guinea pig heart; conditions: 1 μM in perfusate, added 10 minutes before hypoxia; averages of 3 hearts
Text: 3) Effect on Coronary Flow Under Hypoxic Conditions in the Guinea Pig Heart
It is known that an oxygen deficiency in coronary vessels leads to a reflectory dilatation of the vessels in order to compensate the oxygen deficiency. The vascular KATP channel (SUR2B/Kir6.2) plays an important part in this. Its opening leads to hyperpolarization of the cell membrane of the smooth muscle cell and consequently to a reduced calcium influx, resulting in a dilatation of the vessel. Blockade of the vascular KATP channel inhibits the widening of the vessel and thus adjustment of the coronary flow under hypoxic conditions. The test model used for determining the coronary flow was an isolated perfused Langendorff heart of a guinea pig.
Guinea pigs of both sexes were sacrificed by a blow to the head. The heart was quickly removed, and the aorta was canulated. After the canulation, the heart was suspended in the perfusion solution in the Langendorff apparatus, and a latex balloon was inserted into the left ventricle. The coronary flow was recorded using a flow transducer, type E, from Hellige (Freiburg, Germany). The heart was perfused with a constant pressure of 55 mm Hg. Hypoxia was induced by changing the aeration from 95% oxygen/5% carbon dioxide (=normoxia) to 20% oxygen/75% nitrogen/5% carbon dioxide. […]

hSUR1/hKir6.2 = hSUR1/hKir6.2 (Homo sapiens, UniProt Q09428); test: Effect on membrane potential of hSUR1/hKir6.2-transfected CHO cells (hypoglycemic effect), DiBAC4 fluorescence, FLIPR; format: cell-based; conditions: CHO cells activated with diaxozide, averages of at least 4 experiments
hSUR1/hKir6.2, sequence (Q09428 whole entry): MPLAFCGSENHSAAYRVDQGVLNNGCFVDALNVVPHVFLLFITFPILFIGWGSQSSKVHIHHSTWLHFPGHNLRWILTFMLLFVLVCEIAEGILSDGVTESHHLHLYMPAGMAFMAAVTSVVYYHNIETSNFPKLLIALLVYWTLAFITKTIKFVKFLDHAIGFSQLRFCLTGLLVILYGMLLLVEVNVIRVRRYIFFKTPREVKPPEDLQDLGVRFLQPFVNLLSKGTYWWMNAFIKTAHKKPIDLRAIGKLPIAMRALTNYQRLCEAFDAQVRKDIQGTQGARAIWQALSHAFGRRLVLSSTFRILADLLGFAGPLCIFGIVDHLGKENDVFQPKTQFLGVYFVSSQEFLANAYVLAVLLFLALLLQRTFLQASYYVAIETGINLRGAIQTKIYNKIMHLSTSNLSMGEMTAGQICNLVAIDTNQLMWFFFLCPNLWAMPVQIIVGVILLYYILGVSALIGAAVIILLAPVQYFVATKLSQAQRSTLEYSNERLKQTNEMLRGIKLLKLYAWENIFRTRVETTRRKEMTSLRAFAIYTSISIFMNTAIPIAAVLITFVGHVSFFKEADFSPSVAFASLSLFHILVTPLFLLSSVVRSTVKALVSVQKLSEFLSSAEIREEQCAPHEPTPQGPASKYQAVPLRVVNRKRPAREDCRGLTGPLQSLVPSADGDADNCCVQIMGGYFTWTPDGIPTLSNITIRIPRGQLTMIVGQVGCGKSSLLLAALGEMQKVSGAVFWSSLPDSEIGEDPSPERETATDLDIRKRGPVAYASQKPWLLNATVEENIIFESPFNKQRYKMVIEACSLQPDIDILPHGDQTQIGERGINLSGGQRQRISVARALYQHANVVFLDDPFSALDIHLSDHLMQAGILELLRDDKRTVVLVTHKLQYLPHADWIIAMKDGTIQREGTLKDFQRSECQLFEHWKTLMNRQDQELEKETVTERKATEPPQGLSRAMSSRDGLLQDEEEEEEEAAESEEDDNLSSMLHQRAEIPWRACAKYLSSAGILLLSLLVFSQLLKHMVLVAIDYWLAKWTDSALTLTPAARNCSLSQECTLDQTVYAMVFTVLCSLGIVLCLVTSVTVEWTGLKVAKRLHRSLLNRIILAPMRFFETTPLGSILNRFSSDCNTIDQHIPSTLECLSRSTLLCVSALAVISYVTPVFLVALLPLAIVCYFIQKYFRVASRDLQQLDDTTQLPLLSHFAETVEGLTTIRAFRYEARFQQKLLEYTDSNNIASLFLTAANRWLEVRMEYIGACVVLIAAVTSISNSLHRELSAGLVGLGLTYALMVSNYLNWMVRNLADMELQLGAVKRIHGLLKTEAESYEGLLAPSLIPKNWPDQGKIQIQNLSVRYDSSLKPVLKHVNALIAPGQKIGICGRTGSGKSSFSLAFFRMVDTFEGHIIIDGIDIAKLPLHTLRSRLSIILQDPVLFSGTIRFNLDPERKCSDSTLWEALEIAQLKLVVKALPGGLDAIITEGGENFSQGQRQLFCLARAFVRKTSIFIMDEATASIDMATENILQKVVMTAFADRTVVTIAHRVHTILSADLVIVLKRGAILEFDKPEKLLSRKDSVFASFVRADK
hSUR1/hKir6.2, sequence (Q14654 whole entry partner): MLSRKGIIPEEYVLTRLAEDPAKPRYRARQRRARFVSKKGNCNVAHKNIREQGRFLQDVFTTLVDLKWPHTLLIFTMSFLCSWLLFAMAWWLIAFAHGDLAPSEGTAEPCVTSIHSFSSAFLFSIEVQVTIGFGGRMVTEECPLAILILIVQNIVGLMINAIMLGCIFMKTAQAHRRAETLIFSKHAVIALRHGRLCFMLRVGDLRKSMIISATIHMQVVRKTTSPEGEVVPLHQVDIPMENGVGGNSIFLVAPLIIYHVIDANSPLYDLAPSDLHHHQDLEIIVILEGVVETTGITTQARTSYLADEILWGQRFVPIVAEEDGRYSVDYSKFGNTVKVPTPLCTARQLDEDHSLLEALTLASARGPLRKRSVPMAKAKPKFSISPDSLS
Text: 2) Effect on hSUR1/hKir6.2-Transfected CHO Cells (Hypoglycemic Effect)
The target organ of these compounds is the β cell of the pancreas, where they block ATP-sensitive potassium channels and bring about, through influencing the electric potential of the cell membrane, a release of the blood sugar-lowering hormone insulin. […] The extent of this depolarization of the cell membrane caused by the compounds according to the invention was investigated on CHO cells which were transfected with the cloned components of human pancreatic ATP-sensitive potassium channels, hSUR1 and hKir6.2, and were activated by pretreatment with diaxozide, an opener of ATP-sensitive potassium channels. The strength of action of a compound on the membrane potential of these transfected and activated CHO cells is a measure of the blood sugar-lowering potential of this compound.
On the day of the measurement, the microtiter plates were washed three times with PBS (physiological buffer solution). 90 μl remained in each well at the last washing step. The cells were then loaded with the fluorescent dye DiBAC4 (Molecular Probes, Portland, Oreg., USA) by adding 90 μl of a 10 micromolar solution of DIBAC4 in PBS and 90 μl of a 400-micromolar solution of diaxozide in PBS to each well. After an incubation time of 30 minutes at 37° C., the microtiter plates were then transferred into a Fluorescent Microtiter Plate Reader (FLIPR; Molecular Devices, Sunnyvale, Calif., USA). The cells were excited using an argon laser (Innova 90; Coherent, Santa Clara, Calif., USA) at a wavelength of 488 nm, and the fluorescence emission was measured using a CCD camera. Measurement of the membrane potential began after 4 minutes by adding 20 μl of a solution of the test substance or of the control solution to each well, measuring the resulting fluorescence emission every 20 seconds over a period of 20 minutes. The data listed below are averages of at least 4 experiments.

[1] = tested on: guinea pig papillary muscle; test: Effect on the action potential duration (APD90) on the guinea pig papillary muscle under hypoxia; conditions: test substance 2 μmol/l in bath, 60 minutes after addition; 100% = APD90 under hypoxia before substance, 0% = normoxic APD90
Text: 1) Effect on the Action Potential Duration on the Guinea Pig Papillary Muscle
ATP deficiency states like those observed in the cardiomyocyte during an ischemia lead to a shortening of the action potential duration. They are regarded as one of the causes of so-called reentry arrhythmias, which can cause sudden cardiac death. The opening of ATP-sensitive potassium channels through the lowering of the ATP level is regarded as the cause thereof (ATP=adenosine triphosphate). For measuring the action potential on the guinea pig papillary muscle, a standard microelectrode technique was employed.
Guinea pigs of both sexes were sacrificed by a blow to the head, the heart was removed, and the papillary muscles were dissected out and suspended in an organ bath. The organ bath was rinsed with Ringer's solution (136 mmol/l NaCl, 3.3 mmol/l KCl, 2.5 mmol/l CaCl2, 1.2 mmol/l KH2PO4, 1.1 mmol/l MgSO4, 5.0 mmol/l glucose, 10.0 mmol/l 1-(2-hydroxyethyl)piperazine-4-(2-ethanesulfonic acid) (HEPES), pH adjusted to 7.4 with NaOH) and aerated with 100% oxygen at a temperature of 37° C. The muscle was stimulated via an electrode with square-wave pulses of 1 V and 1 ms duration and a frequency of 1 Hz. The action potential was derived through a glass microelectrode which is inserted intracellularly and filled with 3 mol/l KCl solution, and was recorded. The action potential was amplified using an amplifier from Hugo Sachs (March-Hugstetten, Germany) and stored and evaluated by a computer. The duration of the action potential was determined at a degree of repolarization of 90% (APD90). The shortening of the action potential was induced after an equilibration time of 30 minutes by rinsing the papillary muscle with a hypoxic solution. For this, the glucose was removed, the HEPES buffer replaced by PIPES buffer (piperazine-1,4-bis(2-ethanesulfonic acid)), the pH adjusted to 6.5 and aeration was carried out with 100% nitrogen. This led after a period of 60 minutes to a marked shortening of the APD90. After this time, the test substance was added in the form of a stock solution in propanediol, so that the concentration of the substance in the bath solution was 2 μmol/l. After a further 60 minutes, the re-prolongation of the action potential again recorded. The table below indicates the overall shortening, resulting after hypoxia and addition of test substance, of the APD90 value in percent, i.e. the percentage shortening of the APD90 still remaining after addition of the test substance under hypoxia, where 100% corresponds to the APD90 value under hypoxic conditions before addition of the test substance and 0% corresponds to the APD90 value under normoxic conditions at the start of the experiment.

Compound	melting point [°C]	Hypoxic coronary flow compared with the control in percent (guinea pig heart) [%]	hSUR1/hKir6.2 blockade at 0.1 μM (hSUR1/hKir6.2) [%]	hSUR1/hKir6.2 blockade at 1 μM (hSUR1/hKir6.2) [%]	hSUR1/hKir6.2 blockade at 10 μM (hSUR1/hKir6.2) [%]	Remaining shortening of the APD90 under hypoxia in percent [1] [%]
CCCNC(=O)NS(=O)(=O)N1CCC(CCNC(=O)c2cc(Cl)ccc2OC)CC1 [Example 9, 5-Chloro-2-methoxy-N-(2-(1-(3-propylureidosulfonyl)piperidin-4-yl)ethyl)benzamide]	140 to 142	–	–	–	–	–
COc1ccc(Cl)cc1C(=O)NCCC1CCN(S(=O)(=O)NC(=O)NC2CC2)CC1 [Example 11, 5-Chloro-2-methoxy-N-(2-(1-(3-cyclopropylureidosulfonyl)piperidin-4-yl)ethyl)benzamide]	138 to 139	–	–	–	–	–
COc1ccc(Cl)cc1C(=O)NCCc1ccc(S(=O)(=O)NC(=O)NC2CCCCC2)cc1 [Comparison (1), glibenclamide, reference compound]	–	35	–	–	–	–
CCNC(=S)NS(=O)(=O)N1CCC(CCNC(=O)c2cc(Cl)ccc2OC)CC1 [Example 2, 5-Chloro-2-methoxy-N-(2-(1-(3-ethylthioureidosulfonyl)piperidin-4-yl)ethyl)benzamide]	–	–	<1	4	67	82
COc1ccc(Cl)cc1C(=O)NCCC1CCN(S(=O)(=O)NC(=S)NC(C)C)CC1 [Example 4, 5-Chloro-2-methoxy-N-(2-(1-(3-isopropylthioureidosulfonyl)piperidin-4-yl)ethyl)benzamide]	–	61	2	53	89	54
COc1ccc(Cl)cc1C(=O)NCCC1CCN(S(=O)(=O)NC(=S)NC2CCCCC2)CC1 [Example 6, 5-Chloro-2-methoxy-N-(2-(1-(3-cyclohexylthioureidosulfonyl)piperidin-4-yl)ethyl)benzamide]	146 to 148	–	–	–	–	–
CCCNC(=S)NS(=O)(=O)N1CCC(CCNC(=O)c2cc(Cl)ccc2OC)CC1 [Example 3, 5-Chloro-2-methoxy-N-(2-(1-(3-propylthioureidosulfonyl)piperidin-4-yl)ethyl)benzamide]	–	–	5	55	89	67
COc1ccc(Cl)cc1C(=O)NCCC1CCN(S(=O)(=O)NC(=S)NC2CC2)CC1 [Example 5, 5-Chloro-2-methoxy-N-(2-(1-(3-cyclopropylthioureidosulfonyl)piperidin-4-yl)ethyl)benzamide]	144 to 145	–	–	–	–	–
CCNC(=O)NS(=O)(=O)N1CCC(CCNC(=O)c2cc(Cl)ccc2OC)CC1 [Example 8, 5-Chloro-2-methoxy-N-(2-(1-(3-ethylureidosulfonyl)piperidin-4-yl)ethyl)benzamide]	–	–	8	55	102	54
CNC(=S)NS(=O)(=O)N1CCC(CCNC(=O)c2cc(Cl)ccc2OC)CC1 [Example 1, 5-Chloro-2-methoxy-N-(2-(1-(3-methylthioureidosulfonyl)piperidin-4-yl)ethyl)benzamide]	–	–	<1	2	41	80
CNC(=O)NS(=O)(=O)N1CCC(CCNC(=O)c2cc(Cl)ccc2OC)CC1 [Example 7, 5-Chloro-2-methoxy-N-(2-(1-(3-methylureidosulfonyl)piperidin-4-yl)ethyl)benzamide]	–	–	<1	15	60	68
